In patent US10478451B2, “Use of dextran sulfate” (TX Medic AB, priority 2015, dated 2019):
Entries after “also recorded” stand apart in the source; their conditions may differ.

Tests used:
[1] = system: myocardial infarction induced interstitial fibrosis; assay: Anti-fibrosis effect in a rat model of myocardial infarction (interstitial fibrosis, Masson's Trichrome staining); format: in vivo
From the text: The present study assessed the effect of dextran sulfate in inhibiting or reducing fibrosis in a rat model of myocardial infarction (MI).
The myocardial infarction model in rat involved ligations of the left coronary artery permanently with an intramural stitch. The surgery caused obstruction of the blood flow and subsequently to severe ischemic damage and cardiac walls infarct.
In total 120 female SD rats having an average body weight of 178 g at study initiation (Day 0) were obtained from Harlan Laboratories, Israel. Animals were fed ad libitum a commercial rodent diet (Teklad Certified Global 18% Protein Diet). Animals had free access to autoclaved and acidified drinking water (pH between 2.5 and 3.5) obtained from the municipality supply. Animals were housed under standard laboratory conditions, air conditioned and filtered (HEPA F6/6) with adequate fresh air supply (minimum air changes/hour). Animals were kept in a climate controlled environment with a temperatures range of 20-24° C. and RH range of 30-70% with 12 hours light and 12 hours dark cycle.
Dextran sulfate with an average molecular weight within a range of 5-7 kDa was dissolved in 0.9% NaCl (saline) (Teva Pharmaceutical Industries Ltd) to be injected subcutaneous at doses of 15 mg/kg or 3 mg/kg. […]
Masson's Trichrome Staining was used for fibrosis evaluation. […] The sections were visualized in a computer-imaging system and infarct size was marked and calculated using the ImageJ program. For each animal, five serial sections including one containing the ligature were analyzed and the mean value of all sections for each heart was treated as one value for statistical analysis. […]
Interstitial fibrosis in the marginal area of the infarct was estimated manually in heart sections stained with Masson's Trichrome Staining. The area of interstitial fibrosis was calculated as the percent of the total area of the left ventricle. For each rat five cross-sections were analyzed.

[2] = orally delivered; mice, rats, hamsters and guinea pigs; cited from earlier work

## Dextran sulfate
[1]; group 2M: 15 mg/kg s.c., 3 times a week for 3 weeks, P<0.01, five weeks post-infarction
  interstitial fibrosis compared to vehicle control group 1M (in words): significant suppression of myocardial infarction induced interstitial fibrosis; also recorded: significantly decreased fibrosis
[1]; group 2M: 15 mg/kg s.c., 3 times a week for 3 weeks, female SD rats, margin zone of infarct, day 36 after MI, vehicle group 1M 22.7±1.9%
  extent of interstitial fibrosis (area of interstitial fibrosis as percent of the total area of the left ventricle): 11.9±0.9%
[1]; groups 3M-5M: 15 mg/kg s.c. 3 times a week for 1 week, 15 mg/kg single dose, 3 mg/kg 3 times a week for 1 week, day 36 after MI
  extent of interstitial fibrosis compared to vehicle control group 1M (in words): also lower in the other dextran sulfate treated groups 3M-5M, although the difference was not significant
[2]
  induction of colitis and intestinal fibrosis: known to induce colitis and intestinal fibrosis
